The values that follow come from article PMC7565698, “Catabolic Reductive Dehalogenase Substrate Complex Structures Underpin Rational Repurposing of Substrate Scope” (Microorganisms, 2020).

SMILES strings stand for the structures.

For assay [1], the target named is T1, NpRdhA (Nitratireductor pacificus, UniProt K2MB66).
T1 construct: gene NA2_14372; full-length, N-terminal His6 tag (NpRdhA^N; crystals) or C-terminal His6 tag (NpRdhA^C; A419M); expressed in Bacillus megaterium; holds cobalamin and two [4Fe-4S] clusters
As to the kind of experiment: X-ray crystal structure, soaked crystals ([…] Å). The format is binding. The settings on record: N-terminal His tag, 100 mM soak.

The target in assay [2] is T2, NpRdhA (Nitratireductor pacificus, UniProt K2MB66, A419M).
T2 construct: gene NA2_14372; full-length, N-terminal His6 tag (NpRdhA^N; crystals) or C-terminal His6 tag (NpRdhA^C; A419M); expressed in Bacillus megaterium; holds cobalamin and two [4Fe-4S] clusters
As to the kind of experiment: HPLC of dehalogenation products. The conditions noted are these: NADPH, spinach ferredoxin, E. coli flavodoxin reductase, 30 °C, anaerobic; C-terminal His tag. The format is biochemical.

In assay [3] the target is T1, NpRdhA. As to the kind of experiment: X-band continuous wave EPR of cob(II)alamin. The format is binding. The settings on record: 20 mM ligand, 100 uM protein, 30 K.

T1 sequence (K2MB66 entry or part of it): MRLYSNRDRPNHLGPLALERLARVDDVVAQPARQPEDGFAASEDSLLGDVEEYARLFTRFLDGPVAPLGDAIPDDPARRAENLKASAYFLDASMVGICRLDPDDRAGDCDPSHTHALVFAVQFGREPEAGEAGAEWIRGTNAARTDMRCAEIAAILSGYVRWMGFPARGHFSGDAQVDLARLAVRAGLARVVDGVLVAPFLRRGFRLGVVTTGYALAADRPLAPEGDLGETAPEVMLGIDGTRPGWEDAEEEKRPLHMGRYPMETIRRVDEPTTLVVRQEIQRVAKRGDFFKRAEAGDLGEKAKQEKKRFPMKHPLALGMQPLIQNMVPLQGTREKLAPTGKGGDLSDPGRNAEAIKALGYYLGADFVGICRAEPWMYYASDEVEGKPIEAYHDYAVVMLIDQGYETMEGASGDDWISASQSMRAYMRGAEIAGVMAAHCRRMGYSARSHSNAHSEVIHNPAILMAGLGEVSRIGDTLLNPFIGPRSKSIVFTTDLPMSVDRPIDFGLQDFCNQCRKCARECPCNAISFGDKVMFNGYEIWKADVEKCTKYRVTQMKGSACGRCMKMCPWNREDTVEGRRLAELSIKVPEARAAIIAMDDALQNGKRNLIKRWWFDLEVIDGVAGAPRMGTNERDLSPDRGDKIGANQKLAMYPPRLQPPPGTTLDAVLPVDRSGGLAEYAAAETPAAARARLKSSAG
T2 sequence (K2MB66 entry or part of it A419M): as the sequence (K2MB66 entry or part of it) above, with A419M counted along it

As to `O=C(O)c1ccc(O)c(Br)c1` [3-B-4-OH, 3-bromo-4-hydroxybenzoic acid], the “X-ray crystal structure, soaked crystals (1.99 Å)” value at NpRdhA [1] (three conformations, one with Br ligating Co, one at the active site entrance) was “structure of the NpRdhA^N protein in complex with 3-B-4-OH obtained through soaking”. Further, the “HPLC of dehalogenation products” value on NpRdhA [2] is “revealed the ability to dehalogenate 35-DB-4-OH, 3-B-4-OH, 35-DC-4-OH and 3-C-4-OH”. Regarding `O=C(O)c1cc(Cl)c(O)c(Cl)c1` [35-DC-4-OH, 3,5-dichloro-4-hydroxybenzoic acid], the “X-band continuous wave EPR of cob(II)alamin” value at NpRdhA [3] is “a distinct change in both g and hyperfine coupling values on substrate binding”. As for `O=C(O)c1cc(Br)c(O)c(Br)c1` [35-DB-4-OH, 3,5-dibromo-4-hydroxybenzoic acid], the “X-ray crystal structure, soaked crystals (1.99 Å)” value on NpRdhA [1] (active site above cobalamin, Br at Co beta-axial position, partial photoreduction to 3-bromo-4-hydroxybenzoic acid) is 35-DB-4-OH is located above the cobalamin. Also, on NpRdhA [2], the “HPLC of dehalogenation products” value was “revealed the ability to dehalogenate 35-DB-4-OH, 3-B-4-OH, 35-DC-4-OH and 3-C-4-OH”.
